We go through 16 molecules from ChEMBL document CHEMBL1909046, “DrugMatrix in vitro pharmacology data”.

Assay [1] addresses Beta-1 adrenergic receptor (Homo sapiens, UniProt P08588). The experiment in a line: DRUGMATRIX: Adrenergic beta1 radioligand binding (ligand: [125I] Cyanopindolol). It counts as cell membranes, CHO-K1, Membrane. The following applies: cho-k1; Not Active = under 50% inhibition at 10 µM.
The next assay concerns the target Nitric oxide synthase 1 (Rattus norvegicus, UniProt P29476). It counts as tissue-based, Cerebellum. Note: in other assays of this panel Not Active means under 50% inhibition at 10 µM.
The target of assay [2] is C-C chemokine receptor type 2 (Homo sapiens, UniProt P41597). Type of assay: cell membranes, CHO-K1, Membrane. The following applies: cho-k1. Note: in other assays of this panel Not Active means under 50% inhibition at 10 µM.
Assay [3] has as its target T1, Muscarinic acetylcholine receptor M2 (Homo sapiens, UniProt P08172). Note: in other assays of this panel Not Active means under 50% inhibition at 10 µM.
T1 sequence (P08172 whole entry): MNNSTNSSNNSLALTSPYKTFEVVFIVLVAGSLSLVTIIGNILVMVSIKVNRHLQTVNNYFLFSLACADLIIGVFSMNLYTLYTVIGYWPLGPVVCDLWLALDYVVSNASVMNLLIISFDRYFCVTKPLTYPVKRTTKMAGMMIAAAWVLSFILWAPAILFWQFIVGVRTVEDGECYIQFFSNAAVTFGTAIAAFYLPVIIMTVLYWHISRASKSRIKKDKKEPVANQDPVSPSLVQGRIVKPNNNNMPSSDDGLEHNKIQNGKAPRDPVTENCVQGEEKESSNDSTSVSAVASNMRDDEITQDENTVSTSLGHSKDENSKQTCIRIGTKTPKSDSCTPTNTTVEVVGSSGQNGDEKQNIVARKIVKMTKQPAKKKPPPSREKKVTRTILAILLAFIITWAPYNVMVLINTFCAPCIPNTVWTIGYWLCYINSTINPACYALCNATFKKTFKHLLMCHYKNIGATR
Type of assay: cell membranes, CHO-K1, Membrane.

In assay [4] the target is T2, Receptor-type tyrosine-protein phosphatase C (Homo sapiens, UniProt P08575).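 Note: inhibition of CD45 enzyme activity measured using DiFMUP as substrate; in other assays of this panel Not Active means under 50% inhibition at 10 µM.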
T2 sequence (P08575 whole entry): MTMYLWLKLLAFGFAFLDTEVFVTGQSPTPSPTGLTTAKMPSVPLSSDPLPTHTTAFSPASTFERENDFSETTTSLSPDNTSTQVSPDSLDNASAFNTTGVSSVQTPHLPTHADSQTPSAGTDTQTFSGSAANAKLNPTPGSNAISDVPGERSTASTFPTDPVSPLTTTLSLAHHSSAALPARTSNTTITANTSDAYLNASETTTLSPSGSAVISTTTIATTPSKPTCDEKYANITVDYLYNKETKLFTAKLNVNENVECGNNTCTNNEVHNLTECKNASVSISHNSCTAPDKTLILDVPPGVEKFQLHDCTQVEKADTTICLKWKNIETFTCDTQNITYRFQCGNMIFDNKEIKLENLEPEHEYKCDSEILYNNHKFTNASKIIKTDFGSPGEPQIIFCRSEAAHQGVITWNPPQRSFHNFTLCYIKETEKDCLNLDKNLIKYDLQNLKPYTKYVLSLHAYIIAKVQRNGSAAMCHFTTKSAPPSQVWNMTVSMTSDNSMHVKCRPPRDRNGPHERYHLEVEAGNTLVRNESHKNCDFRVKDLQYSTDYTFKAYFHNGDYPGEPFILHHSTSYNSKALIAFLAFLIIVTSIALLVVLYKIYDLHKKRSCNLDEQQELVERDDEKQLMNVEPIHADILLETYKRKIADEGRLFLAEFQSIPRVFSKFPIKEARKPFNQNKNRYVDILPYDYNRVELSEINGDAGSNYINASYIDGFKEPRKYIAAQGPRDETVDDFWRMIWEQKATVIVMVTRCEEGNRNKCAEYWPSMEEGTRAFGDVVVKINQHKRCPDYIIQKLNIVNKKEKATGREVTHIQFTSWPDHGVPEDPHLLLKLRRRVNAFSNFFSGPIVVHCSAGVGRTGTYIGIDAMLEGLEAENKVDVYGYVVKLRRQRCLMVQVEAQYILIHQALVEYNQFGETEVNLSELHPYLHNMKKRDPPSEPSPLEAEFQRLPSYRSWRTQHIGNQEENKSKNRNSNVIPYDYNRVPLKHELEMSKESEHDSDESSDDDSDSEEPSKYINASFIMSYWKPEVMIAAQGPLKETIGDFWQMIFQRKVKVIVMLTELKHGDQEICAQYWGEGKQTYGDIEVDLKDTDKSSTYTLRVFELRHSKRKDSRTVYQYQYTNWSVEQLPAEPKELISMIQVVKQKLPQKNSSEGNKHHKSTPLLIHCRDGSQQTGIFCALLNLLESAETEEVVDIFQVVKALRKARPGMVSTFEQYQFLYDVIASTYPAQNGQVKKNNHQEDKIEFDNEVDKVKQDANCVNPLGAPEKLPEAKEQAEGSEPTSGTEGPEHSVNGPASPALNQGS
The arrangement: species or system Escherichia coli.

For assay [5], the target named is T3, 5-hydroxytryptamine receptor 1A (Rattus norvegicus, UniProt P19327). Note: in other assays of this panel Not Active means under 50% inhibition at 10 µM.
T3 sequence (P19327 whole entry): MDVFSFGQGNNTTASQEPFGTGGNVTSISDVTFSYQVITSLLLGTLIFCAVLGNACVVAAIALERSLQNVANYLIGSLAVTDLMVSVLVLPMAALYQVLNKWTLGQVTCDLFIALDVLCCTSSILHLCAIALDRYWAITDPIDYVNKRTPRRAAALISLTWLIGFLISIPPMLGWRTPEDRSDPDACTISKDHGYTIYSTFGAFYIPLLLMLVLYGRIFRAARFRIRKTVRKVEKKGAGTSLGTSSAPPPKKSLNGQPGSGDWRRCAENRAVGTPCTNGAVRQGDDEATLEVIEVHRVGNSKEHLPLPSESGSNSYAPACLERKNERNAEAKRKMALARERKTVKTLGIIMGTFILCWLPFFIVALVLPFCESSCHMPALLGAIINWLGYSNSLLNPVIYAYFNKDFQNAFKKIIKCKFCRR
It counts as cell membranes, CHO-K1, Membrane.

Assay [6] addresses Platelet-activating factor receptor (Homo sapiens, UniProt P25105). It counts as tissue-based.

Chain of Nitric oxide synthase 1 (P29476 whole entry): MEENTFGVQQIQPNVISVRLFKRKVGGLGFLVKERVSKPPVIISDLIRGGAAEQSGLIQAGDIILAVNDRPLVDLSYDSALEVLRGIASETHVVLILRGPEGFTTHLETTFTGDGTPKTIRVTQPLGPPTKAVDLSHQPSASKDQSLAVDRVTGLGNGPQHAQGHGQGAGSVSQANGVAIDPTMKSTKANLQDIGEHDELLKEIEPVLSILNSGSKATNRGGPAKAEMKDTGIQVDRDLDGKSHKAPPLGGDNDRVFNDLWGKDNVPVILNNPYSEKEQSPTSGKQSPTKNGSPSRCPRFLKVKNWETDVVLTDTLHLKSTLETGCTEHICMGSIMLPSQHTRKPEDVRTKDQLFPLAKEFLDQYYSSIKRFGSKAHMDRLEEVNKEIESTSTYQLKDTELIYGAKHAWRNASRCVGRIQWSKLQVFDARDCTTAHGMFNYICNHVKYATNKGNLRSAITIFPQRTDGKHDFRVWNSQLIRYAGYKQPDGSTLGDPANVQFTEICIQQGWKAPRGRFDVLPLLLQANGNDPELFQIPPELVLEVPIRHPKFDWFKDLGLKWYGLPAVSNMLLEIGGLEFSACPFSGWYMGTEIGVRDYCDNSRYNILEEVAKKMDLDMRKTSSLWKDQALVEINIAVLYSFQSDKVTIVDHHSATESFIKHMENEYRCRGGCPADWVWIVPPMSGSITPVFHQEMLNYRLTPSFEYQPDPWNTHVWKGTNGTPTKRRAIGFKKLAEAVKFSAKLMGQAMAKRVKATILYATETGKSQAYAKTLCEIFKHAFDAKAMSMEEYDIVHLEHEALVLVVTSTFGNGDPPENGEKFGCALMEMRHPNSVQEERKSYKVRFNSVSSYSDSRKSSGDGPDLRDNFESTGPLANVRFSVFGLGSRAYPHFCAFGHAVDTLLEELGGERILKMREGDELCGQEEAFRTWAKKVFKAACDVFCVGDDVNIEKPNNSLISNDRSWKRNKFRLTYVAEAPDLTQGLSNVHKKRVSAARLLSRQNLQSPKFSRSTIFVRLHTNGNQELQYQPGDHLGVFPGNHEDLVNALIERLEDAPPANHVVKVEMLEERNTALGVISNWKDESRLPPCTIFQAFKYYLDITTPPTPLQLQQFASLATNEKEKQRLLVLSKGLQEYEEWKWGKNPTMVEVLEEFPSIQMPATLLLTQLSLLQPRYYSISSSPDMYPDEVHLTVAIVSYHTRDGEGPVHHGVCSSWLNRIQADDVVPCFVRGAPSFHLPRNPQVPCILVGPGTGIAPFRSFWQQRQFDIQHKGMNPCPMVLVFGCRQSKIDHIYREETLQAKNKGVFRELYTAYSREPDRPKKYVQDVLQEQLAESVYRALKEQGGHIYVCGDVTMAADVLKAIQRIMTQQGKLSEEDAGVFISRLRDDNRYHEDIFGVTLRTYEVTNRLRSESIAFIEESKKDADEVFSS
Chain of Beta-1 adrenergic receptor (P08588 whole entry): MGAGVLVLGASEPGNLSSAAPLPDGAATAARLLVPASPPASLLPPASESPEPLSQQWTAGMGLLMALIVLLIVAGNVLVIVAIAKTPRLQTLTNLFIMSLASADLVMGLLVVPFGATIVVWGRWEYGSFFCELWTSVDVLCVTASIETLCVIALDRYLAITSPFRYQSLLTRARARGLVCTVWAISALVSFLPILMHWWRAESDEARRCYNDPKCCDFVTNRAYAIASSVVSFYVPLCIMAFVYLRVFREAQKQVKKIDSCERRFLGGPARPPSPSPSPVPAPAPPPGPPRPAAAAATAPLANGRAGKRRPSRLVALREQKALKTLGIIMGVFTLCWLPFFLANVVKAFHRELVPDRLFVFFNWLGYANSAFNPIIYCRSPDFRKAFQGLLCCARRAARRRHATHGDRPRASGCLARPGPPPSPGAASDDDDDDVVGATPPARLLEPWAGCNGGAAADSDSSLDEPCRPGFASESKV
Chain of Platelet-activating factor receptor (P25105 whole entry): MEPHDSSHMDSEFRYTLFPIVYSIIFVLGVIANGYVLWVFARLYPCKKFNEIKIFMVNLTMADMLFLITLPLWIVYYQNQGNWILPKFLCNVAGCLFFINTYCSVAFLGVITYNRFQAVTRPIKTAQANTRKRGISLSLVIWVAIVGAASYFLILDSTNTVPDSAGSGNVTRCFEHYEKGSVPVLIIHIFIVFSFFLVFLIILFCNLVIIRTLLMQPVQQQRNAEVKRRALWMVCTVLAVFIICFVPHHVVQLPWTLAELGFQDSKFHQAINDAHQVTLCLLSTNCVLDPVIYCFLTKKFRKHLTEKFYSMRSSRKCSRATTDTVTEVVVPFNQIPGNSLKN
Chain of C-C chemokine receptor type 2 (P41597 whole entry): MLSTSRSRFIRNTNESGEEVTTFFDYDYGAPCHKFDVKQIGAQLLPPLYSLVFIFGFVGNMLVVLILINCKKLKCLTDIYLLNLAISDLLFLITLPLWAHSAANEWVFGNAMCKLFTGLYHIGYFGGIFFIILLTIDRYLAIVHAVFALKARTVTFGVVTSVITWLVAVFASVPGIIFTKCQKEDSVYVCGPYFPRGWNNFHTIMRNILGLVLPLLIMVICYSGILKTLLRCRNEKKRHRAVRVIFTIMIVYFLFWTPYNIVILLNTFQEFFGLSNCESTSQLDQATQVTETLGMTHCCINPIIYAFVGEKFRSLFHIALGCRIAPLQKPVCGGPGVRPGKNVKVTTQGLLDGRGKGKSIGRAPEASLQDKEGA

Regarding `OC[C@H]1O[C@@H]2O[C@H]3[C@H](O)[C@@H](O)[C@@H](O[C@H]4[C@H](O)[C@@H](O)[C@@H](O[C@H]5[C@H](O)[C@@H](O)[C@@H](O[C@H]6[C@H](O)[C@@H](O)[C@@H](O[C@H]7[C@H](O)[C@@H](O)[C@@H](O[C@H]8[C@H](O)[C@@H](O)[C@@H](O[C@H]1[C@H](O)[C@H]2O)O[C@@H]8CO)O[C@@H]7CO)O[C@@H]6CO)O[C@@H]5CO)O[C@@H]4CO)O[C@@H]3CO` [BETADEX], the IC50 entry (in assay [1]; at Nitric oxide synthase 1; in assay [2]; in assay [3] (cho-k1); in assay [4]; in assay [5] (cho-k1)) was “Not Active” throughout. For the same molecule, the IC50 entry in assay [6] is reported as “Not Active”.

On to `COc1cc([C@@H]2c3cc4c(cc3[C@H](O)[C@H]3COC(=O)[C@H]23)OCO4)cc(OC)c1OC` [PODOFILOX], for which the IC50 result (in assay [1]; against Nitric oxide synthase 1; in assay [2]; in assay [3] (cho-k1); in assay [4]; in assay [5] (cho-k1)) was “Not Active” each time. Further, the IC50 entry in assay [6] is given as “Not Active”.

Consider `C[C@H]1C[C@H]2[C@@H]3CCC4=CC(=O)C=C[C@]4(C)[C@@]3(F)[C@@H](O)C[C@]2(C)[C@@]1(O)C(=O)CO` [BETAMETHASONE], for which the IC50 entry (in assay [1]; at Nitric oxide synthase 1; in assay [2]; in assay [3] (cho-k1); in assay [4]; in assay [5] (cho-k1)) was “Not Active” throughout. The IC50 result in assay [6] is reported as “Not Active”.

Regarding CARBOXYMETHYLCELLULOSE, the concentration for half-maximal inhibition (IC50) result (in assay [1]; against Nitric oxide synthase 1; in assay [2]; in assay [3] (cho-k1); in assay [4]; in assay [5] (cho-k1)) was “Not Active” each time. In assay [6], the IC50 entry was “Not Active”. For the same molecule, the Ki result (in assay [1]; on Nitric oxide synthase 1; in assay [2]; in assay [3] (cho-k1); in assay [4]; in assay [5] (cho-k1)) was “Not Active” throughout. For the same molecule, the Ki result in assay [6] is on record as “Not Active”.

`NC(=O)CN1CCCC1=O`: the IC50 result (in assay [1]; on Nitric oxide synthase 1; in assay [2]; in assay [3] (cho-k1); in assay [4]; in assay [5] (cho-k1)) was “Not Active” throughout. The IC50 result in assay [6] is recorded as “Not Active”.

For `CC(N)Cc1c[nH]c2ccc(OCc3cccs3)cc12` (configuration not stated) [BW-723C86], the IC50 entry was “Not Active” in assay [1]; “Not Active” against Nitric oxide synthase 1; “Not Active” in assay [2]; “Not Active” in assay [3] (cho-k1); “Not Active” in assay [4]; 1130 nM in assay [5] (read-out: IC50). Also, the IC50 result in assay [6] is given as “Not Active”. In assay [5] (read-out: Ki), the Ki stood at 644 nM.

For the molecule `CNC[C@H](O)c1ccc(O)c(O)c1` [EPINEPHRINE], the IC50 entry (in assay [1]; against Nitric oxide synthase 1; in assay [2]; in assay [3] (cho-k1); in assay [4]; in assay [5] (cho-k1)) was “Not Active” each time. Also, the IC50 result in assay [6] is on record as “Not Active”.

Regarding `c1ccc2c(c1)Nc1ccccc1S2` [PHENOTHIAZINE], the IC50 result (in assay [1]; against Nitric oxide synthase 1; in assay [2]; in assay [3] (cho-k1); in assay [4]; in assay [5] (cho-k1)) was “Not Active” in each case. The 50% inhibitory concentration (IC50) entry in assay [6] is reported as “Not Active”.

Take `ClC1=C(Cl)[C@]2(Cl)[C@@H]3[C@@H]4C[C@@H]([C@H]5O[C@@H]45)[C@@H]3[C@@]1(Cl)C2(Cl)Cl` [DIELDRIN]: the IC50 entry (in assay [1]; at Nitric oxide synthase 1; in assay [2]; in assay [3] (cho-k1); in assay [4]; in assay [5] (cho-k1)) was “Not Active” each time. Further, the IC50 result in assay [6] is listed as “Not Active”.

Consider `CC(C)(c1ccc(O)cc1)c1ccc(O)cc1` [BISPHENOL A], for which the IC50 result (in assay [1]; on Nitric oxide synthase 1; in assay [2]; in assay [3] (cho-k1); in assay [4]; in assay [5] (cho-k1)) was “Not Active” throughout. For the same molecule, the IC50 entry in assay [6] is “Not Active”.

Take `CN(Cc1cc(Br)cc(Br)c1N)C1CCCCC1` [BROMHEXINE]: the IC50 result (in assay [1]; against Nitric oxide synthase 1; in assay [2]; in assay [3] (cho-k1); in assay [4]; in assay [5] (cho-k1)) was “Not Active” each time. For the same molecule, in assay [6], the IC50 entry is recorded as “Not Active”.

Take `c1ccc(Cn2ccnc2)cc1`: the IC50 result (in assay [1]; on Nitric oxide synthase 1; in assay [2]; in assay [3] (cho-k1); in assay [4]; in assay [5] (cho-k1)) was “Not Active” each time. In addition, the half-inhibitory concentration (IC50) entry in assay [6] is reported as “Not Active”.

Consider `CCO` [ALCOHOL], for which the IC50 entry (in assay [1]; against Nitric oxide synthase 1; in assay [2]; in assay [3] (cho-k1); in assay [4]; in assay [5] (cho-k1)) was “Not Active” throughout. In assay [6], the IC50 result is listed as “Not Active”.

Consider `CCN1CCN(C(=O)N[C@@H](C(=O)N[C@@H]2C(=O)N3[C@@H]2SC(C)(C)[C@@H]3C(=O)O)c2ccccc2)C(=O)C1=O` [PIPERACILLIN], for which the IC50 result (in assay [1]; against Nitric oxide synthase 1; in assay [2]; in assay [3] (cho-k1); in assay [4]; in assay [5] (cho-k1)) was “Not Active” throughout. Further, in assay [6], the half-maximal inhibitory concentration (IC50) result is listed as “Not Active”.

Consider `NC(=O)NC(=O)Cc1ccccc1` [PHENACEMIDE], for which the IC50 result (in assay [1]; on Nitric oxide synthase 1; in assay [2]; in assay [3] (cho-k1); in assay [4]; in assay [5] (cho-k1)) was “Not Active” in each case. In assay [6], the IC50 entry is on record as “Not Active”.

For the molecule `CC(CN1c2ccccc2Sc2ccccc21)N(C)C` (configuration not stated) [PROMETHAZINE], the IC50 entry in assay [1] is “Not Active”; against Nitric oxide synthase 1 it was “Not Active”; in assay [2], “Not Active”; in assay [3] (read-out: IC50), 35 nM; in assay [4], “Not Active”; in assay [5] (read-out: IC50), 2600 nM. Further, in assay [6], the IC50 entry is “Not Active”. In addition, the Ki in assay [3] (read-out: Ki) was determined as 12 nM; in assay [5] (read-out: Ki) it was 1480 nM.
